Assay: Moisture sensitivity test: hydrolytic degradation of isothiocyanate in aqueous phosphate buffer
Assay type: physicochemical
Conditions: white mustard essential oil (about 25% 4-HBITC) suspended in aqueous phosphate buffer pH about 3.6, about 20-23° C., about 24 hours
Protocol: Supercritical fluid chromatography can be used to determine the amount of 4-hydroxybenzyl isothiocyanate in a preservative composition. First an accurately weighed amount of the preservative composition is either dissolved in a compatible solvent such as ethyl acetate or ethyl acetate and ethanol mixtures or solid preservative compositions are extracted repeatedly with ethyl acetate.
These solutions are analyzed by supercritical fluid chromatography using the method described by Buskov, S. et al., “Supercritical fluid chromatography as a method of analysis for the determination of 4-hydroxybenzylglucosinolate degradation products,” Journal of Biochemical and Biophysical Methods, Vol. 43, pp 157-174 (2000) with the following modifications. A Berger SFC 3D system equipped with a photodiode array detector (Berger Instruments Inc., Newark, Del.) is used for the analysis. […] The eluate is detected at 226 and 252 nm. […]
Moisture sensitive isothiocyanate compounds are identified by suspending the isothiocyanate containing material in an aqueous phosphate buffer (pH of about 3.6) at room temperature. […] The extraction procedure is repeated after 24 hours and the level of residual isothiocyanate compound is measured by supercritical fluid chromatography. […]

## Oc1ccc(CN=C=S)cc1 [4-hydroxybenzyl isothiocyanate]
  percent reduction in level of 4-hydroxybenzyl isothiocyanate after 24 hours: about 72%

Reference: patent US20120052175A1 (priority 2010, published 2012)
